Tests used:
His-PKC-theta = target: T1, His-PKC-theta (Homo sapiens, UniProt Q04759); experiment: PKC-theta Assay (384-well time resolved fluorescence, IMAP TR-FRET); format: biochemical; conditions: read-out: Act. Level (IC50 in the PKC-theta Assay)
T1 construct: His; purchased Invitrogen
In short: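 Enzyme at 142 pM phosphorylated 200 nM Fam-S6 peptide with 10 μM ATP in 50 mM HEPES pH 7.6, 10 mM MgCl2, 1 mM DTT for 2 h at room temperature. Product was detected after overnight incubation with IMAP binding reagent and Tb donor by time-resolved FRET.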

PKC delta = target: T2, PKC delta (Homo sapiens, UniProt Q05655); experiment: PKC delta Assay (384-well time resolved fluorescence, IMAP TR-FRET); format: biochemical; conditions: selectivity for PKC-theta over PKC-delta
T2 construct: purchased Invitrogen
Experimental: PKC delta Assay. A 384-well time resolved fluorescence assay was used to monitor PKC delta activity. The PKC delta assay was run in the following assay buffer: 50 mM HEPES pH 7.6, 10 mM MgCl2, 1 mM DTT, 0.01% Triton X-100, 0.01% BSA and 0.1 mM EDTA. To initiate the reaction, 200 nM of Fam-labeled S6-derived peptide (Molecular Devices) and 10 μM of ATP were mixed with 1.5 nM of PKC delta (Invitrogen), for a total assay volume of 25 μL in each well. The assay was incubated at room temperature for 2 hours and terminated using a 60 μL/well mixture of Detection Binding Solution: 70% IMAP Progressive Binding Buffer A, 30% IMAP Progressive Binding Buffer B, 1:600 Progressive Binding Reagent, and 1:400 TR-FRET Tb Donor (Molecular Devices). The assay plates were then incubated overnight at room temperature and read on the Perkin-Elmer Envision Reader.

T2 sequence (Q05655 whole entry): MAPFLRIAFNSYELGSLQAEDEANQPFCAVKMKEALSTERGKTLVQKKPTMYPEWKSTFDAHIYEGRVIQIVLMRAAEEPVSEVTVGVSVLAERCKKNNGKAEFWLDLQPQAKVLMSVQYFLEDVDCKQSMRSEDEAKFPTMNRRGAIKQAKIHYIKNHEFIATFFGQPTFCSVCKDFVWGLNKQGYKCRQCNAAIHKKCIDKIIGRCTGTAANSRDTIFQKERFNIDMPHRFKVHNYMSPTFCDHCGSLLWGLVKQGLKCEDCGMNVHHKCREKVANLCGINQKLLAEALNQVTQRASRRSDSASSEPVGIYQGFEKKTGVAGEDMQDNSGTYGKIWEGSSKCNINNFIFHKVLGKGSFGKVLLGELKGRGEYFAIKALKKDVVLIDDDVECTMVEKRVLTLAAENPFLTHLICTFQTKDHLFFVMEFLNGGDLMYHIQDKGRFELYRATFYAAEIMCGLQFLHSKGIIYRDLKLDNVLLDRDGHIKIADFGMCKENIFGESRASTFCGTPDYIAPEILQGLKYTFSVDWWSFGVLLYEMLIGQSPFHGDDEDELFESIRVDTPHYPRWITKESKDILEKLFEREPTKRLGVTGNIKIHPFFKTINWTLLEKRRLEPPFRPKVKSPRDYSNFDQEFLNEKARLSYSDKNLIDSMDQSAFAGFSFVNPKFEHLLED
T1 sequence (Q04759 whole entry): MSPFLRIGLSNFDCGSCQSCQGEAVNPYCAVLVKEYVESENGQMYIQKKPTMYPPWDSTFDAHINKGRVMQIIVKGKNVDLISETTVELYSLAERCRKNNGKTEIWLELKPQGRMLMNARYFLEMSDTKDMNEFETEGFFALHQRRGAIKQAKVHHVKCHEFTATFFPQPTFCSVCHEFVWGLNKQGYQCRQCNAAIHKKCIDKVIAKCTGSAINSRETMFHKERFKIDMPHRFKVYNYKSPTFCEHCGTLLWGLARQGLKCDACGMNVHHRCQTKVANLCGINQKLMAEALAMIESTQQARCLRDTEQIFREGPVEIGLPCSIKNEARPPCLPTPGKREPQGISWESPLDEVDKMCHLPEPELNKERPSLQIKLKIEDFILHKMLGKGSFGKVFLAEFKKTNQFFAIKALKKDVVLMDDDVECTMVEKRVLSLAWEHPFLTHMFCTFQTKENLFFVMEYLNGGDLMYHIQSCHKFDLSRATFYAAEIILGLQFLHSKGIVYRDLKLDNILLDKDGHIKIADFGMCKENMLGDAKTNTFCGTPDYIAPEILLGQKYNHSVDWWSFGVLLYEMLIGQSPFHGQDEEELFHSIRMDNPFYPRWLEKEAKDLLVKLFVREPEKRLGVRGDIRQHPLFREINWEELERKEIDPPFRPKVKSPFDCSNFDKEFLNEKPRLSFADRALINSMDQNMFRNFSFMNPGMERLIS

| Compound | IC50 (His-PKC-theta) [nM] | Sel. Level (ratio of IC50 PKC-delta/IC50 PKC-theta) (PKC delta) |
| --- | --- | --- |
| CC1(C)C[C@H](Nc2nc(NCCc3noc(C(F)(F)F)n3)ncc2C#N)CC[C@@H]1O [Cmpd 219] | 800 to 2000 | G (selectivity between 5- and 20-fold (selectivity level G)) |
| COc1cccc(CCNc2ncc(C#N)c(N[C@@H]3CC[C@H](O)C(C)(C)C3)n2)n1 [Cmpd 215] | 800 to 2000 | G (selectivity between 5- and 20-fold (selectivity level G)) |
| CN1C(=O)C(CCNc2ncc(C#N)c(N[C@@H]3C[C@H](C(N)=O)C3(C)C)n2)c2ccccc21 (stereo partly drawn) [Cmpd 325] | 100 to 800 | F (selectivity of between 20- and 100-fold (selectivity level F)) |
| Cc1cc(C(F)(F)F)nn1CCNc1ncc(C#N)c(N[C@@H]2CC(O)C2(C)C)n1 (stereo partly drawn) [Cmpd 225] | 2000 to 10000 | H (selectivity level of 5-fold or less (selectivity level H)) |
| CN1C(=O)C(CCNc2ncc(C#N)c(N[C@@H]3CC[C@H](O)C(C)(C)C3)n2)c2ccccc21 (stereo partly drawn) [Cmpd 300] | 800 to 2000 | G (selectivity between 5- and 20-fold (selectivity level G)) |
| CC(F)(F)COc1ncncc1CNc1ncc(C#N)c(N[C@H]2CCC[C@@](C)(O)C2)n1 [Cmpd 287] | 100 to 800 | F (selectivity of between 20- and 100-fold (selectivity level F)) |
| Cc1cc(CCNc2ncc(C#N)c(N[C@H]3CC[C@@H](C(N)=O)CC3)n2)ncn1 [Cmpd 319] | 2000 to 10000 | H (selectivity level of 5-fold or less (selectivity level H)) |
| CC1(C)[C@H](Nc2nc(NCc3cncnc3OCCC(F)(F)F)ncc2C#N)C[C@]1(C)O [Cmpd 334] | < 100 | E (selectivity (Sel. Level=ratio of IC50 PKC-delta/IC50 PKC-theta) of >100-fold (selectivity level E)) |
| CC1(C)C[C@H](Nc2nc(NCCc3cc4cc(C#N)ccc4[nH]3)ncc2C#N)CC[C@@H]1O [Cmpd 251] | 100 to 800 | G (selectivity between 5- and 20-fold (selectivity level G)) |
| CC(F)(F)COc1ncncc1CNc1ncc(C#N)c(N[C@@H]2CCC[C@@](C)(O)C2)n1 [Cmpd 286] | 100 to 800 | F (selectivity of between 20- and 100-fold (selectivity level F)) |
| CC1(C)C[C@H](Nc2nc(NCCn3cccn3)ncc2C#N)CC[C@@H]1O [Cmpd 211] | 2000 to 10000 | H (selectivity level of 5-fold or less (selectivity level H)) |
| CC1(C)C[C@H](Nc2nc(NCC[C@@]3(C)C(=O)Nc4ccccc43)ncc2C#N)CC[C@@H]1O [Cmpd 304] | 100 to 800 | F (selectivity of between 20- and 100-fold (selectivity level F)) |
| Cc1ccc(CCNc2ncc(C#N)c(N[C@@H]3CC(O)C3(C)C)n2)o1 (stereo partly drawn) [Cmpd 232] | 100 to 800 | F (selectivity of between 20- and 100-fold (selectivity level F)) |
| CCc1cccn1CCNc1ncc(C#N)c(N[C@H]2CC[C@@H](C(N)=O)CC2)n1 [Cmpd 323] | 100 to 800 | G (selectivity between 5- and 20-fold (selectivity level G)) |
| CC1(C)[C@@H](O)C[C@H]1Nc1nc(NCCn2ccc3ccccc32)ncc1C#N [Cmpd 239] | 2000 to 10000 | H (selectivity level of 5-fold or less (selectivity level H)) |
| CC1(C)C[C@H](Nc2nc(NCCc3ccc4ccccc4n3)ncc2C#N)CC[C@@H]1O [Cmpd 256] | 800 to 2000 | G (selectivity between 5- and 20-fold (selectivity level G)) |
| CC(F)(F)COc1ncncc1CNc1ncc(C#N)c(N[C@H]2CC3(C2)C[C@](C)(O)C3)n1 (stereo partly drawn) [Cmpd 295] | 100 to 800 | F (selectivity of between 20- and 100-fold (selectivity level F)) |
| CC1(C)[C@@H](c2nc[nH]n2)C[C@H]1Nc1nc(NCCC2C(=O)Nc3ccccc32)ncc1C#N (stereo partly drawn) [Cmpd 317] | < 100 | E (selectivity (Sel. Level=ratio of IC50 PKC-delta/IC50 PKC-theta) of >100-fold (selectivity level E)) |

| Compound | IC50 (His-PKC-theta) [nM] | Sel. Level (ratio of IC50 PKC-delta/IC50 PKC-theta) (PKC delta) |
| --- | --- | --- |
| CCOc1cccc(CCNc2ncc(C#N)c(N[C@@H]3CC[C@H](O)C(C)(C)C3)n2)n1 [Cmpd 257] | 800 to 2000 | G (selectivity between 5- and 20-fold (selectivity level G)) |
| CC1(C)C[C@H](Nc2nc(NCCc3cnc(C4CC4)nc3)ncc2C#N)CC[C@@H]1O [Cmpd 218] | 2000 to 10000 | H (selectivity level of 5-fold or less (selectivity level H)) |
| CC(F)(F)COc1ncncc1CNc1ncc(C#N)c(N[C@H]2CCC[C@@H](O)C2(C)C)n1 [Cmpd 298] | < 100 | E (selectivity (Sel. Level=ratio of IC50 PKC-delta/IC50 PKC-theta) of >100-fold (selectivity level E)) |
| CC1(C)[C@@H](O)C[C@H]1Nc1nc(NCCc2cc3cc(C#N)ccc3[nH]2)ncc1C#N [Cmpd 264] | 100 to 800 | G (selectivity between 5- and 20-fold (selectivity level G)) |
| Cc1ncccc1CCNc1ncc(C#N)c(N[C@@H]2CC[C@H](O)C(C)(C)C2)n1 [Cmpd 258] | 100 to 800 | F (selectivity of between 20- and 100-fold (selectivity level F)) |
| CC1(C)C[C@H](Nc2nc(NCCc3c[nH]c4ccccc34)ncc2C#N)CC[C@@H]1O [Cmpd 203] | < 100 | F (selectivity of between 20- and 100-fold (selectivity level F)) |
| CC1(C)[C@@H](O)C[C@H]1Nc1nc(NCCc2ncon2)ncc1C#N [Cmpd 230] | 2000 to 10000 | H (selectivity level of 5-fold or less (selectivity level H)) |
| CC1(C)[C@@H](Nc2nc(NCCC3C(=O)Nc4cc(F)ccc43)ncc2C#N)CCC[C@@H]1O (stereo partly drawn) [Cmpd 309] | 800 to 2000 | G (selectivity between 5- and 20-fold (selectivity level G)) |
| CC1(C)C[C@H](Nc2nc(NCCc3ccncn3)ncc2C#N)CC[C@@H]1O [Cmpd 278] | 2000 to 10000 | H (selectivity level of 5-fold or less (selectivity level H)) |
| CC1(C)CC(Nc2nc(NCCc3c[nH]c4cccnc34)ncc2C#N)CC[C@@H]1O (stereo partly drawn) [Cmpd 255] | 2000 to 10000 | H (selectivity level of 5-fold or less (selectivity level H)) |
| Cn1cc(CCNc2ncc(C#N)c(N[C@@H]3CC[C@H](O)C(C)(C)C3)n2)c2ccccc21 [Cmpd 292] | < 100 | F (selectivity of between 20- and 100-fold (selectivity level F)) |
| CC1(C)[C@@H](O)C[C@H]1Nc1nc(NCCC2CNc3cc(Cl)ccc32)ncc1C#N (stereo partly drawn) [Cmpd 263] | 100 to 800 | G (selectivity between 5- and 20-fold (selectivity level G)) |
| CC1(C)[C@@H](O)C[C@H]1Nc1nc(NCCc2ccn[nH]2)ncc1C#N [Cmpd 245] | 800 to 2000 | G (selectivity between 5- and 20-fold (selectivity level G)) |
| CC1(C)C[C@H](Nc2nc(NCCn3ccc4ccccc43)ncc2C#N)CC[C@@H]1O [Cmpd 202] | 2000 to 10000 | H (selectivity level of 5-fold or less (selectivity level H)) |
| CC1(C)C[C@H](Nc2nc(NCCc3c[nH]c4ccncc34)ncc2C#N)CC[C@@H]1O [Cmpd 284] | 2000 to 10000 | H (selectivity level of 5-fold or less (selectivity level H)) |
| CC1(C)C[C@H](Nc2nc(NCCc3ccncc3)ncc2C#N)CC[C@@H]1O [Cmpd 280] | 100 to 800 | G (selectivity between 5- and 20-fold (selectivity level G)) |
| Cn1c(=O)n(CCNc2ncc(C#N)c(N[C@@H]3CC[C@H](O)C(C)(C)C3)n2)c2ccccc21 [Cmpd 291] | 2000 to 10000 | H (selectivity level of 5-fold or less (selectivity level H)) |
| N#Cc1cnc(NCCc2c[nH]c3ccccc23)nc1N[C@H]1C[C@@H](C(N)=O)C1 [Cmpd 290] | 100 to 800 | F (selectivity of between 20- and 100-fold (selectivity level F)) |

From patent US9783505B2, “Substituted diaminopyrimidyl compounds, compositions thereof, and methods of treatment therewith” (Signal Pharmaceuticals, LLC, priority 2013, dated 2017)
